Reference: US20220218833A1, “PLATELET-FACILITATED DELIVERY OF THERAPEUTIC COMPOUNDS” (CSTS Health Care Inc., priority 2019, published 2022)
“Also recorded” adds a separate entry of the source. Where no end group is shown, it is not given here.

Key:
platelets = test: Cargo loading into platelets contacted with a non-specific GAG inhibitor; type: cell-based; settings: platelets contacted with the inhibitor
Source text: The present invention is based, in part, on the discovery that cargo can be loaded in alpha granules and that this loading is not receptor-mediated. Instead, cargo loading into platelets, and specifically into their alpha granules, relies on the binding to glycosaminoglycans (GAG) in the alpha granules of the platelets.

[1] = tested on: alpha granules of platelets; test: Confocal microscopy of Alexa647-labeled peptides with PF4 alpha granule marker; type: cell-based; settings: for loading of attached cargo into alpha granules of platelets (Alexa647 intensities for each ROI): ROIs selected on PF4 intensity, FIG. 2B
Experimental: To confirm that the Alexa647-labeled GAG-binding peptides were loaded into alpha granules of platelets, confocal microscopy was used. The platelets that were centrifuged in the experiments of FIG. 1A and FIG. 1B, were fixed in 2% paraformaldehyde and settled onto glass coverslips. After permeabilization, immunofluorescence staining was performed against PF4, which is a marker for alpha granules of platelets. Platelets were stained with Alexa568-secondary antibody. Images were collected through a Nikon-A1 laser-scanning microscope equipped with a 60× oil objective lens.
FIG. 2A are representative images with PF4 staining shown in red (left column) and the Alexa647 signal (from the free Alexa647, Alexa647-labeled GAG-binding peptide, or Alexa647-labeled CFL; middle column) shown in purple. Images were only adjusted for brightness and contrast for display. n>5 images were acquired for each experiment and regions of interest (ROIs) were selected based on PF4 intensity.
The Alexa647 intensities for each ROI were measured using ImageJ and plotted in box and whisker graph using Prism 8.

[2] = Affinity chromatography of peptides; type: binding; settings: FIG. 4
Experimental: Additionally, the binding affinities for the two illustrative GAG-binding peptides and the CFL to heparan sulfate (HS) was determined using affinity chromatography.

isolated platelets = test: Platelet loading of Alexa647-labeled peptides, decrease in supernatant fluorescence; type: cell-based; settings: for absorbance of supernatant, complete versus loaded measurements (loading into platelets): Alexa647-labeled peptides co-incubated with isolated platelets at 37° C. for one hour, FIG. 1A; for loading of attached cargo into platelets, loaded condition normalized to complete condition: Alexa647 as cargo, FIG. 1B
Experimental: Alexa647-labeled GAG-binding peptides, identified in FIG. 1A and FIG. 1B as PAL1 and PAL2 and an Alexa647-labeled control peptide (a charge-free ligand (CFL) which served as a negative control), were tested for their binding affinity for glycosaminoglycans, such as chondroitin sulfate, and their abilities to enter platelets.
Alexa647-labeled peptides or Alexa647 alone were co-incubated with isolated platelets at 37° C. for one hour to allow for platelet loading. The respective platelet-loading ability was indicated by a decrease in fluorescence in supernatant following the incubation. For controls, identical experiments were performed without the incubation period (noted as “complete” in the figure). Platelets following co-incubation were then centrifuged at 800 g for 10-minutes to separate platelets from supernatant (noted as “loaded” in the figure).
FIG. 1B represents the data in FIG. 1A normalized for each peptide experiment, i.e., normalization of a loaded condition to its complete condition.

Row | binding to heparan sulfate (HS) [2] | Molecule | amount of cargos loaded into platelets (platelets) | loading of attached cargo into alpha granules of platelets (Alexa647 intensities for each ROI) [1] | colocalization of alpha granule marker PF4 and Alexa647 signal ([1]; merged confocal images, FIG. 2A) | absorbance of supernatant, complete versus loaded measurements (loading into platelets) (isolated platelets) | loading of attached cargo into platelets, loaded condition normalized to complete condition (isolated platelets) | relative affinity for HS, PAL2 versus PAL1 [2]
1 | – | Cc1cc(N)c2cc(NC(=O)Nc3ccc4nc(C)cc(N)c4c3)ccc2n1 [Surfen] | reduced amounts of cargos are loaded into platelets | – | – | – | – | –
2 | did not bind to HS | CFL: control peptide, a charge-free ligand, SEQ ID NO: 14, negative control (EGGIWFPYGGF) [reference compound] | – | do not load into platelets | Co-localization was not observed | did not change | unable to direct loading of the cargo into platelets | –
3 | – | ERRIWFPYRRF (SEQ ID NO: 1) (also: Alexa647 label) [PAL1] | – | facilitates loading of an attached cargo into alpha granules of platelets | – | decrease in absorbance | facilitates loading of an attached cargo into platelets | –
4 | – | RFRWPYRIREF (SEQ ID NO: 2) (also: Alexa647 label) [PAL2] | – | facilitates loading of an attached cargo into alpha granules of platelets | – | decrease in absorbance | facilitates loading of an attached cargo into platelets | greater affinity for HS than PAL′; also recorded: binds HS tighter than PALL
